From US20170172945A1, “METHODS OF TREATING BREAST CANCER” (Mitchell Woods Pharmaceuticals, Inc., priority 2014, published 2017)

Assays:
Assay type in all cases: cell-based, Human
MCF-7 cells [1] = assay: [3H]-thymidine incorporation assay in MCF-7 cells; details: serum-starved, 24 hours
Description: (§1) Cells were seeded in 12-well plates at approximately 50,000 cells/well and incubated at 37° C. After 24 hours, the wells were rinsed with PBS and replaced with serum-free medium containing the appropriate concentration of the test compounds. After another 24-hour incubation at 37° C., 1 μCi of [^3H]-thymidine was added to each well and incubated at 37° C. for 16 hours. […] The lysate was then mixed with 3 mL of liquid scintillation cocktail (Beckman Coulter, Inc., Brea, Calif.), and radioactivity was measured by liquid scintillation counting using Beckman Coulter LS6000IC Scintillation Counter. Data are shown as CPM incorporated compared to the control cells.
(§2) CF-7 cells and MDA-MB-231 cells were seeded out on E-Plates and allowed to settle. Cells were stimulated with MNF. Cellular proliferation and adherence was measured every 15 minutes using xCELLigence RTCA station. The serum-starved cells were incubated with various amounts of (R,R′)-MNF concentrations for 24 hours and the levels of [3H]thymidine incorporation were measured.

MDA-MB-231 cells [2] = assay: [3H]-thymidine incorporation assay in MDA-MB-231 cells; details: serum-starved, 24 hours
Description: as §1, §2

ERK [3] = assay: basal phosphorylation levels of ERK in MCF-7 cells; details: serum starved for 3 hours, compound for 15 minutes
Description: (§3) Levels of ERK1/2 and its phosphorylated forms were determined using PathScan ELISA kits according to manufacturer's protocol (Perkin Elmer Alphascreen Surefire ERK1/2 assay kit, cat no. TGRES500).
(§4) (R,R′)-MNF decreased basal phosphorylation levels of ERK. MCF-7 and MDA-MB-231 cells were serum starved for 3 hours and subjected to compound of interest or vehicle for 15 minutes. The levels of phosphorylated ERK were determined in MNF-treated MCF-7 and MDA-MB-231 cells.

Cyclin D1 [4] = assay: expression of Cyclin D1 in MDA-MB-231 cells
Description: (§5) Cells were lysed with RIPA buffer containing EGTA and EDTA (Boston BioProducts, Ashland, Mass.). The lysis buffer was mixed with a protease inhibitor cocktail (Sigma-Aldrich). Protein concentrations were measured using the bicinchoninic acid reagent (Thermo-Pierce Biotechnology, Inc., Rockford, Ill.). Proteins (20 μg/well) were separated on 4-12% precast gels (Invitrogen, Carlsbad, Calif.) using SDS-polyacrylamide gel electrophoresis under reducing conditions and were electrophoretically transferred onto polyvinylidene fluoride membrane (Invitrogen). Western blots were performed according to standard methods. The visualization of immunoreactive bands was performed using the ECL Plus Western Blotting Detection System (GE Healthcare, NJ) and their quantification was done by volume densitometry using Image J software and normalization to β-actin. The primary antibody for β2-APv was obtained from Enzo Life Sciences, Inc. (Cat. # AD 1-905-742-100, Farmingdale, N.Y.); rabbit anti-phospho-Akt (Ser-473), phospho-ERK1/2, total Akt and total ERK2 were from Cell Signaling Technology (Beverly, Mass.), and anti-P-actin was from Abeam (Cambridge, Mass.). The antibodies were used at a dilution recommended by the manufacturer.
(§6) The effect of MNF on expression of the cell cycle regulatory proteins Cyclin D1 and Cyclin B1 in MCF-7 cells and MDA-MB-231 cells was evaluated. […]

MCF-7 cells [5] = assay: cell cycle analysis in MCF-7 cells
Description: (§7) Cell cycle distributions were performed by flow cytometry on propidium iodide-stained nuclei prepared by the NEVI technique. DNA histograms of at least 10,000 cells acquired on a Becton-Dickinson FACScanto II (BD Biosciences, San Jose, Calif.) were deconvoluted using the Multicycle program (Phoenix Flow Systems) for estimates of the percentage of cells in the G0/1, S, and G2+M phases of the cell cycle. Debris and doublets were removed from the analysis by software algorithms.

MCF-7 cells [6] = assay: proliferation of MCF-7 cells (xCELLigence RTCA)
Description: as §2, with “measured. MNF inhibited the incorporation of radiolabelled thymidine in both CF-7 cells and MDA-MB-231 cells.” for “measured.”

MDA-MB-231 cells [7] = assay: cell cycle analysis in MDA-MB-231 cells
Description: as §7

ERK [8] = assay: basal phosphorylation levels of ERK in MDA-MB-231 cells; details: serum starved for 3 hours, compound for 15 minutes
Description: as §3, §4

[9] = tested on: Multidrug resistance protein (Mdr); assay: expression of Multidrug resistance protein (Mdr) in MCF-7 cells
From the text: As shown therein, MNF reduces the expression of Multidrug resistance protein (Mdr) in MCF-7 cells.

MDA-MB-231 cells [10] = assay: proliferation of MDA-MB-231 cells (xCELLigence RTCA)
Description: as §2, with “measured. MNF inhibited the incorporation of radiolabelled thymidine in both CF-7 cells and MDA-MB-231 cells.” for “measured.”

Cyclin B1 = assay: expression of Cyclin B1 in MCF-7 cells
Description: as §5, §6

Cyclin D1 [11] = assay: expression of Cyclin D1 in MCF-7 cells
Description: as §5, §6

**Q.** How did the “blocking of the inhibitory effect of MNF on [3H]thymidine incorporation” value (MCF-7 cells [1]; with MNF) turn out when `Cc1ccc(OCC(O)C(C)NC(C)C)c2c1CCC2` (centres unmarked) [ICI 118,551, 3-(isopropylamino)-1-[(7-methyl-4-indanyl)oxy]butan-2-ol, reference compound] was run?
**A.** not

**Q.** What about the “blocking of the inhibitory effect of MNF on [3H]thymidine incorporation” value (MDA-MB-231 cells [2]; with MNF) of the same molecule?
**A.** not

**Q.** How did the “basal phosphorylation levels of ERK” value (ERK [3]) turn out when `COc1ccc(C[C@@H](C)NC[C@H](O)c2cc(O)cc(O)c2)c2ccccc12` [MNF, (R,R′)-4′-methoxy-1-naphthylfenoterol] was run?
**A.** decreased

**Q.** And the “expression of Cyclin D1” value (Cyclin D1 [4])?
**A.** reduced

**Q.** And the “arrest of the cell cycle” value (MCF-7 cells [5])?
**A.** G2/M phase arrested cell population was increased

**Q.** And the “growth of cancer cells” value (MCF-7 cells [6])?
**A.** inhibit

**Q.** What about the proliferation (MCF-7 cells [6]) of the same molecule?
**A.** inhibit

**Q.** And the “arrest of the cell cycle” value (MDA-MB-231 cells [7])?
**A.** arrested at G1/S phase

**Q.** What about the “basal phosphorylation levels of ERK” value (ERK [8]) of the same molecule?
**A.** decreased

**Q.** And the “expression of Multidrug resistance protein (Mdr)” value [9]?
**A.** reduces

**Q.** And the “growth of cancer cells” value (MDA-MB-231 cells [10]; MDA-MB-231 cells)?
**A.** inhibit

**Q.** And the proliferation (MDA-MB-231 cells [10]; MDA-MB-231 cells)?
**A.** inhibit

**Q.** What about the “sensitivity to MNF compared with MCF-7 cancer cells” value (MDA-MB-231 cells [10]; MDA-MB-231 cells vs MCF-7 cells) of the same molecule?
**A.** significantly more sensitive

**Q.** And the “expression of Cyclin B1” value (Cyclin B1)?
**A.** reduced

**Q.** What about the “expression of Cyclin D1” value (Cyclin D1 [11]) of the same molecule?
**A.** unchanged

**Q.** What about the “levels of [3H]thymidine incorporation” value (MCF-7 cells [1]) of the same molecule?
**A.** inhibited

**Q.** And the “levels of [3H]thymidine incorporation” value (MDA-MB-231 cells [2])?
**A.** inhibited
